Experiments:
Renin (Homo sapiens) [1] = biological target: T1, Renin (Homo sapiens) (UniProt P00797); test: Inhibition of human renal renin at the concentration of 10e-5 M.
T1 sequence (whole entry): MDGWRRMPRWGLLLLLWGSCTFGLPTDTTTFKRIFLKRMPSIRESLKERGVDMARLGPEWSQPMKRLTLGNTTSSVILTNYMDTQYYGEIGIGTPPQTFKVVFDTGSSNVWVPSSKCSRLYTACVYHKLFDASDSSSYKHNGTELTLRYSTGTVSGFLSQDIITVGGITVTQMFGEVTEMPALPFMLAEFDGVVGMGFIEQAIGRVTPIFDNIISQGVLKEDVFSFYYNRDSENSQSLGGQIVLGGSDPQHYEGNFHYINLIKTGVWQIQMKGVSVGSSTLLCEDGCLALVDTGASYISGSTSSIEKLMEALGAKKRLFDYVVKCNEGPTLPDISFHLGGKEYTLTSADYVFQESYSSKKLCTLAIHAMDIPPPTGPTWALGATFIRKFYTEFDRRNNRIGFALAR

Renin [2] = biological target: T2, Renin (Homo sapiens, UniProt P00797); test: Inhibition of human renal renin at the pH optimum 6.0.
T2 sequence (P00797 whole entry): T1 sequence (whole entry)

Renin (Homo sapiens) [3] = biological target: T1, Renin (Homo sapiens); test: The compound was tested for inhibition of human renal renin at the concentration of 10e-6 M
Renin (Homo sapiens) [4] = biological target: T1, Renin (Homo sapiens); test: The compound was tested for inhibition of human renal renin at the concentration of 10e-7 M
Pepsin A (Sus scrofa) = Pepsin A (Sus scrofa) (UniProt P00791); test: Inhibition of porcine pepsin; set-up: concentration or dose not given beside the values; conditions: concentration not given here
Sequence of Pepsin A (Sus scrofa) (P00791 60-385 limits assumed): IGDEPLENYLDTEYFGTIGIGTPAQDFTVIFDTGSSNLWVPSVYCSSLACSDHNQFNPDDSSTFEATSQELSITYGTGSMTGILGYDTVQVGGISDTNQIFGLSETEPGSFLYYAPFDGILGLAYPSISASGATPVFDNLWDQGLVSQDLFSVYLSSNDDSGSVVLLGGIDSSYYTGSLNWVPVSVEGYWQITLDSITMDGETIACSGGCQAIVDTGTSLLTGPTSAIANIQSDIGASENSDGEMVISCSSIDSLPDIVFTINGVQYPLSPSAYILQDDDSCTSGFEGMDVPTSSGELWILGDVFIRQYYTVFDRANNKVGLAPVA

Renin [5] = biological target: T2, Renin; test: The compound was tested for inhibition of human renal renin at the pH optimum 7.4

| SMILES | inhibition (Renin (Homo sapiens) [1]) | IC50 (Renin [2]) | other results |
| --- | --- | --- | --- |
| CC(C)C[C@@H](NC(=O)[C@H](C)NC(=O)[C@H](Cc1ccccc1)NC(=O)OC(C)(C)C)[C@H](O)CNC(C)C | 5% | – | – |
| CC(C)C[C@@H](NC(=O)[C@H](Cc1c[nH]cn1)NC(=O)[C@H](Cc1ccccc1)NC(=O)OC(C)(C)C)[C@H](O)CS(=O)(=O)C1CCCCC1 | – | 90 nM | inhibition (Renin (Homo sapiens) [3]): 92%; inhibition (Renin (Homo sapiens) [4]): 51% |
| CC(C)C[C@H](NC(=O)[C@H](C)NC(=O)[C@H](Cc1ccccc1)NC(=O)OC(C)(C)C)[C@@H](O)CSC(C)C | 90% | 700 nM | inhibition (Pepsin A (Sus scrofa)): 73% |
| CC(C)C[C@@H](NC(=O)[C@H](C)NC(=O)[C@H](Cc1ccccc1)NC(=O)OC(C)(C)C)[C@H](O)CSc1ccc2ccccc2c1 | 23% | – | – |
| CC(C)C[C@H](NC(=O)[C@H](Cc1c[nH]cn1)NC(=O)[C@H](Cc1ccccc1)NC(=O)OC(C)(C)C)[C@@H](O)CSC1CCCCC1 (stereo in doubt; 55) [listing 1 of 2 here] | – | – | inhibition (Renin (Homo sapiens) [4]): 78% |
| CC(C)C[C@@H](NC(=O)[C@H](C)NC(=O)[C@H](Cc1ccccc1)NC(=O)OC(C)(C)C)[C@H](O)CSCCCc1ccccc1 | 88% | 1000 nM | inhibition (Pepsin A (Sus scrofa)): 74% |
| CC(C)CCS(=O)(=O)C[C@@H](O)[C@@H](CC(C)C)NC(=O)[C@H](Cc1c[nH]cn1)NC(=O)[C@H](Cc1ccccc1)NC(=O)OC(C)(C)C | 94% | – | IC50 (Renin [5]): 500 nM |
| CC(C)CCC[C@@H](O)[C@@H](CC(C)C)NC(=O)[C@H](Cc1c[nH]cn1)NC(=O)[C@H](Cc1ccccc1)NC(=O)OC(C)(C)C | 97% | 600 nM | – |
| CC(C)C[C@@H](NC(=O)[C@H](C)NC(=O)[C@H](Cc1ccccc1)NC(=O)OC(C)(C)C)[C@H](O)CS(=O)(=O)C1CCCCC1 | 76% | 2000 nM | – |
| CC(C)C[C@@H](NC(=O)[C@H](C)NC(=O)[C@H](Cc1ccccc1)NC(=O)OC(C)(C)C)[C@H](O)CSC(C)(C)C | 88% | 3000 nM | – |
| CC(C)C[C@@H](NC(=O)[C@H](C)NC(=O)[C@H](Cc1ccccc1)NC(=O)OC(C)(C)C)[C@H](O)CSc1ccc(C(C)(C)C)cc1 | 15% | – | – |
| CC(C)CCC[C@@H](O)[C@@H](CC(C)C)NC(=O)[C@H](C)NC(=O)[C@H](Cc1ccccc1)NC(=O)OC(C)(C)C | 71% | 3500 nM | – |
| CC(C)C[C@@H](NC(=O)[C@H](Cc1ccccc1)NC(=O)[C@H](Cc1ccccc1)NC(=O)OC(C)(C)C)[C@H](O)CSc1ccccc1 | 48% | – | inhibition (Pepsin A (Sus scrofa)): 11% |
| CC(C)C[C@@H](NC(=O)[C@H](C)NC(=O)[C@H](Cc1ccccc1)NC(=O)OC(C)(C)C)[C@H](O)C[S+]([O-])C1CCCCC1 (stereo not given in full) | 46% | – | – |
| CC(C)COC[C@@H](O)[C@@H](CC(C)C)NC(=O)[C@H](C)NC(=O)[C@H](Cc1ccccc1)NC(=O)OC(C)(C)C | 59% | 7000 nM | inhibition (Pepsin A (Sus scrofa)): 68% |
| CC(C)C[C@@H](NC(=O)[C@H](C)NC(=O)[C@H](Cc1ccccc1)NC(=O)OC(C)(C)C)[C@H](O)CSC1CCCCC1 | 94% | 800 nM | inhibition (Pepsin A (Sus scrofa)): 100% |
| CC(C)C[C@@H](NC(=O)[C@H](Cc1c[nH]cn1)NC(=O)[C@H](Cc1ccccc1)NC(=O)OC(C)(C)C)[C@H](O)CNC(C)C | 35% | – | – |
| CC(C)C[C@@H](NC(=O)[C@H](Cc1c[nH]cn1)NC(=O)[C@H](Cc1ccccc1)NC(=O)OC(C)(C)C)[C@H](O)CS(=O)(=O)C(C)C | 99% | 200 nM | inhibition (Pepsin A (Sus scrofa)): 3% |
| CC(C)CC[C@@H](O)[C@@H](CC(C)C)NC(=O)[C@H](Cc1c[nH]cn1)NC(=O)[C@H](Cc1ccccc1)NC(=O)OC(C)(C)C | 89% | 1500 nM | – |
| CC(C)CSC[C@@H](O)[C@@H](CC(C)C)NC(=O)[C@H](C)NC(=O)[C@H](Cc1ccccc1)NC(=O)OC(C)(C)C | 89% | 1500 nM | – |
| CC(C)C[C@@H](NC(=O)[C@H](C)NC(=O)[C@H](Cc1ccccc1)NC(=O)OC(C)(C)C)[C@H](O)CSCc1cccc2ccccc12 | 48% | – | – |
| CC(C)C[C@@H](NC(=O)[C@H](Cc1c[nH]cn1)NC(=O)[C@H](Cc1ccccc1)NC(=O)OC(C)(C)C)[C@H](O)CSC(C)C | – | 81 nM | inhibition (Renin (Homo sapiens) [3]): 92%; inhibition (Renin (Homo sapiens) [4]): 54% |

| SMILES | inhibition (Renin (Homo sapiens) [1]) | IC50 (Renin [2]) | other results |
| --- | --- | --- | --- |
| CC(C)COC[C@@H](O)[C@@H](CC(C)C)NC(=O)[C@H](Cc1c[nH]cn1)NC(=O)[C@H](Cc1ccccc1)NC(=O)OC(C)(C)C | 94% | 650 nM | inhibition (Pepsin A (Sus scrofa)): 0% |
| CC(C)C[C@@H](NC(=O)[C@H](C)NC(=O)[C@H](Cc1ccccc1)NC(=O)OC(C)(C)C)[C@H](O)CSc1ccc(Br)cc1 | 21% | – | – |
| CC(C)C[C@@H](NC(=O)[C@H](Cc1c[nH]cn1)NC(=O)[C@H](Cc1ccccc1)NC(=O)OC(C)(C)C)[C@H](O)CSc1ccccc1 | 96% | 960 nM | inhibition (Pepsin A (Sus scrofa)): 0% |
| CC(C)C[C@@H](NC(=O)[C@H](Cc1c[nH]cn1)NC(=O)[C@H](Cc1ccccc1)NC(=O)OC(C)(C)C)[C@H](O)CS(=O)(=O)CC(C)C | 98% | – | IC50 (Renin [5]): 350 nM |
| CC(C)C[C@@H](NC(=O)[C@H](Cc1ccc(O)cc1)NC(=O)[C@H](Cc1ccccc1)NC(=O)OC(C)(C)C)[C@H](O)CSc1ccccc1 | 21% | – | inhibition (Pepsin A (Sus scrofa)): 11% |
| CC(C)C[C@@H](NC(=O)[C@H](C)NC(=O)[C@H](Cc1ccccc1)NC(=O)OC(C)(C)C)[C@H](O)COC(C)C | 54% | 7000 nM | – |
| CC(C)C[C@H](NC(=O)[C@H](Cc1c[nH]cn1)NC(=O)[C@H](Cc1ccccc1)NC(=O)OC(C)(C)C)[C@@H](O)CSC1CCCCC1 (stereo in doubt; 55) [listing 2 of 2 here] | – | 35 nM | – |
| CC(C)C[C@@H](NC(=O)[C@H](C)NC(=O)[C@H](Cc1ccccc1)NC(=O)OC(C)(C)C)[C@H](O)CSc1ccccc1 | 56% | 8000 nM | – |
| CC(C)C[C@@H](NC(=O)[C@H](C)NC(=O)[C@H](Cc1ccccc1)NC(=O)OC(C)(C)C)[C@H](O)CSCCc1ccccc1 | 73% | 4500 nM | – |
| CC(C)C[C@@H](NC(=O)[C@H](C)NC(=O)[C@H](Cc1ccccc1)NC(=O)OC(C)(C)C)[C@H](O)CSCc1ccccc1 | 57% | 10000 nM | inhibition (Pepsin A (Sus scrofa)): 96% |
| CC(C)C[C@H](NC(=O)[C@H](Cc1c[nH]cn1)NC(=O)[C@H](Cc1ccccc1)NC(=O)OC(C)(C)C)[C@@H](O)CSC1CCCCC1 (stereo in doubt; 56) | – | 520 nM | – |
| CC(C)C[C@@H](NC(=O)[C@H](C)NC(=O)[C@H](Cc1ccccc1)NC(=O)OC(C)(C)C)[C@H](O)CNc1ccccc1 | 30% | – | – |
| CC(C)CC[C@H](O)[C@H](CC(C)C)NC(=O)[C@H](C)NC(=O)[C@H](Cc1ccccc1)NC(=O)OC(C)(C)C | 85% | 2000 nM | – |
| CC(C)CC[C@@H](O)[C@@H](CC(C)C)NC(=O)[C@H](Cc1c[nH]cn1)NC(=O)[C@H](Cc1ccc2ccccc2c1)NC(=O)OC(C)(C)C | – | 600 nM | inhibition (Renin (Homo sapiens) [3]): 87% |
| CC(C)CCSC[C@@H](O)[C@@H](CC(C)C)NC(=O)[C@H](C)NC(=O)[C@H](Cc1ccccc1)NC(=O)OC(C)(C)C | 93% | 1500 nM | – |
| CC(C)C[C@@H](NC(=O)[C@H](C)NC(=O)[C@H](Cc1ccccc1)NC(=O)OC(C)(C)C)[C@H](O)COc1ccccc1 | 48% | – | inhibition (Pepsin A (Sus scrofa)): 27% |
| CC(C)C[C@@H](NC(=O)[C@H](Cc1c[nH]cn1)NC(=O)[C@H](Cc1ccccc1)NC(=O)OC(C)(C)C)[C@H](O)COC(C)C | 85% | 1500 nM | inhibition (Pepsin A (Sus scrofa)): 0% |
| CC(C)C[C@@H](NC(=O)[C@H](C)NC(=O)[C@H](Cc1ccccc1)NC(=O)OC(C)(C)C)[C@H](O)CSc1cccc2ccccc12 | 7% | – | – |
| CC(C)C[C@@H](NC(=O)[C@H](C)NC(=O)[C@H](Cc1ccccc1)NC(=O)OC(C)(C)C)[C@H](O)CS(=O)(=O)c1ccccc1 | 25% | – | – |
| CC(C)C[C@@H](NC(=O)[C@H](Cc1c[nH]cn1)NC(=O)[C@H](Cc1cccc2ccccc12)NC(=O)OC(C)(C)C)[C@H](O)CSC1CCCCC1 | – | 13 nM | inhibition (Renin (Homo sapiens) [4]): 85% |
| CC(C)C[C@@H](NC(=O)[C@H](C)NC(=O)[C@H](Cc1ccccc1)NC(=O)OC(C)(C)C)[C@H](O)C[S+]([O-])c1ccccc1 (stereo not given in full) | 12% | – | – |
| CC(C)C[C@@H](NC(=O)[C@H](C)NC(=O)[C@H](Cc1ccccc1)NC(=O)OC(C)(C)C)[C@H](O)CSC1CCCC1 | 94% | 1000 nM | – |

Source: ChEMBL document CHEMBL1123909, “New inhibitors of human renin that contain novel Leu-Val replacements” (J Med Chem, 1987)
